This is an account of results in US20080118437A1, “Diagnosis and treatment O prostate cancer” (Regents of the University of Michigan, priority 2006, published 2008).

One test relates to PC-3 cells. Put plainly: Transwell migration assay toward hrCCL2. The format is cell-based, human. The conditions noted are these: hrCCL2 100 ng/mL, 24 hours. How it is done: (§1) Increasing concentrations of CCL2 (1-100 ng/mL) or conditioned media was added to the lower chamber of a 24-well plate. Cells were harvested by EDTA release and resuspended in serum free media at 5×10^4 cells/ml. 2.5×10^4 cells were added to the upper chamber of the transwell insert and incubated for 24 hours at 37° C. and 5% CO^2 atmosphere. At the end of the incubation period, the cells were fixed with 4% formaldehyde in PBS for 5 minutes. Non-adherent cells were removed from inside the inserts with a cotton-tipped applicator. Cells which had migrated to the underside of the insert were stained with 0.5% crystal violet for 5 minutes and rinsed thoroughly with tap water. Inserts were allowed to dry and the cells were counted using an inverted microscope.

Test [1] has as its system HDMVEC (human dermal microvacular endothelial cells). Put plainly: Endothelial tube formation assay in VCaP conditioned media. The format is cell-based. The conditions noted are these: 30 μg/mL in VCaP conditioned media; vs isotype control antibody. How it is done: In vitro tube formation was performed as previously described (Zhou et al., Int J Cancer 110 (2004) 800-806). Growth factor reduced […] was diluted with cold serum-free medium to a concentration of 10 mg/ml. 50 μl of the solution was added to each well of a 96-well plate and allowed to form a gel at 37° C. for 30 min. HDMVEC (human dermal microvacular endothelial cells) cells (150,000 cells/ml) in VCaP conditioned media (VCaP CM) were added to each well and incubated overnight at 37° C. in 5% CO2. […] Under these conditions, EC will form delicate networks of tubes that are detectable within 2-3 h and are fully developed after 8-12 h. After overnight incubation the wells were washed, and the […] and its endothelial tubes were fixed with 3% paraformaldehyde. Tube formation was quantified by counting the number of sprouts that developed per objective field (100×) and assays were performed in triplicate from 3 independent experiments.

The subject of a further test is U937 premonocytic cells. Put plainly: Macrophage migration assay (modified Boyden chamber). The conditions noted are these: VCaP conditioned media; pre-incubation 30 μg/mL. It is filed as cell-based, human. The method, then: as §1, with “Increasing concentrations of CCL2 (1-100 ng/mL) or conditioned media was added to the lower chamber of a 24-well plate.” left out, “by 0.5 μM” for “by”, “CO2” for “CO^2”, “with” for “with a”, “swabs.” for “applicator.”, “that” for “which”

The subject of a further test is VCaP xenografts. Put plainly: VCaP subcutaneous xenograft model of tumorigenesis. The format is in vivo, male SCID mice. The method, then: Xenograft tumors were established as previously described (Loberg et al., Urol Oncol 24 (2006) 161-168). Briefly, male SCID mice (5-6 weeks of age) were injected subcutaneously in the flank with 1×10^6 VCaP cells in 200 μL Matrigel (BD Biosciences, Inc.). Tumor volumes were calculated by caliper measurement performed weekly to monitor and track tumor growth (tumor volume=L×W×W×0.56). […] Mice were treated with 2 mg/Kg antibody twice weekly by intraperitoneal injection, beginning on Day 28 and for the remainder of the study.
Xenograft tumors were harvested and placed in fresh 10% formalin. Tumors were paraffin-embedded and 5 μm sections were cut and placed on glass slides. Hematoxylin and eosin stain was performed per the manufacturer's instructions (Sigma, Inc.). Identification of neovascularization was accomplished by labeling with an anti-CD31 antibody and macrophage infiltration was identified using an anti-CD68 antibody. Tissue sections were incubated for 10 minutes in citrate buffer, pH 6.0 and microwaved. Sections were incubated with anti-CD31 (DakoCytomation, Inc.; 1:50) or anti-CD68 (DaKoCytomation, Inc.; 1:1600) for 30 minutes and detected with LSAB+detection/DAB (3,3′-Diaminobenzidine; Sigma, Inc.) for 5 minutes. Slides were dipped in hematoxylin for 1 second as a counterstain.

For test [2], the system named is PC-3Luc cells. Put plainly: Bioluminescent in vivo model of metastasis (Examples 1 and 2). The arrangement: species or system male SCID mice. The conditions noted are these: Day 35; 2 mg/Kg twice weekly i.p. from Day 14. The method, then: Bioluminescent in vivo model of metastatsis—Bioluminescent imaging of PC-3^Luc was preformed as previously described through The University of Michigan Small Animal Imaging Resource facility (MSAIR) (Kalikin 2003). Briefly, PC-3Luc cells were introduced into male SCID mice (5-6 wks) by intracardiac injections. Mice were serially imaged weekly for 6 weeks using a CCD IVIS™ system using a 50 mm lens (Xenogen Corp, Alameda, Calif.) and the results were analyzed using […] software (Xenogen Corp.). Mice were separated into one of five groups; 1) PBS control, 2) anti-hIgG control human antibody, 3) anti-cVaM control mouse antibody, 4) anti-MCP1 (human), 5) anti-MCP1/JE (mouse). Treatment began at week 2 post-intracardiac injection and mice received 2 mg/Kg antibody twice weekly by intraperitoneal injection. Mice were injected with luciferin (40 mg/mL) intraperitoneally and ventral images were acquired 15 min post-injection under 1.75% isofluorane/air anesthesia. Total tumor burden of each animal was calculated using regions of interest (ROIs) that encompassed the entire animal. Animals were sacrificed after week 6 image and individual organs were harvested and immediately placed in formalin.

For test [3], the system named is PC-3Luc cells. Put plainly: WST-1 proliferation assay with hrCCL2 and anti-CCL2 antibodies. The format is cell-based, human. Particulars: 72 hours, antibodies 30 μg/mL. How it is done: Cells were seeded at a density of 1×10^5 cells/ml for PC-3Luc cells in a 96 well plate in RPMI+10% FBS (FCS is mentioned in previous section). Twenty-four hours after seeding, media was changed to either serum-free RPMI or RPMI+10% FBS. Cell growth was determined 72 hours later using the WST-1 assay (Pierce Biotech, Inc.) following the manufacturer's instructions.
A general note: Tetrazolium assays rely on reduction of a dye to a coloured formazan, in cell work by metabolically active cells.

Take “CNTO888: human IgG1κ antibody that neutralizes human CCL2”: the “hrCCL2-induced migration, mean ±SD” value in the test with PC-3 cells came to 217±29. For the same substance, the “number of capillary-like tubes formed” value in test [1] was “significantly reduced”. Further, the “number of migrating U937 cells” value in the test with U937 premonocytic cells is given as 225±111. For the same substance, in the test with VCaP xenografts (2 mg/Kg twice weekly i.p.), the “attenuation of VCaP subcutaneous tumor growth” value is listed as 42.2%. For the same substance, the “reduction in tumor volume / tumor growth on Day 50 compared to control antibody” value in the test with VCaP xenografts (2 mg/Kg twice weekly i.p. from Day 28 for 3 weeks) is given as 42.2%. For the same substance, the “macrophage infiltration, CD68+ cells, mean ±SD” value in the test on VCaP xenografts (VCaP xenograft, 2 mg/Kg twice weekly i.p.) is on record as 9.00±7.94 cells per 100× objective field. Further, the “angiogenesis by CD31 staining of xenograft tumors” value with VCaP xenografts (compared to isotype controls) was “decreased the amount of angiogenesis”. The “reduction in overall tumor burden compared to control antibody” value in the test with PC-3Luc cells [2] is reported as 46.52%. For the same substance, the figures for the “cell viability (WST-1) as a measure of proliferation, mean ±SD” value with PC-3Luc cells [3] (CCL2 10 ng/mL) and in the test with PC-3Luc cells [3] (CCL2 100 ng/mL) were 112.52±10.2 and 132.93±17.08, respectively.
